Measurements reported in PMC9603476, “Desaturation of the Sphingofungin Polyketide Tail Results in Increased Serine Palmitoyltransferase Inhibition” (Microbiology Spectrum, 2022).

Biological target: T1, SPT (serine palmitoyltransferase) (Sphingomonas paucimobilis, UniProt Q93UV0)
T1 construct: soluble homodimer
Assay: HPLC-HRMS of 3-ketodihydrosphingosine; coupled PPi assay
Assay type: biochemical
Settings: pH 7.5, 37°C

T1 sequence (Q93UV0 whole entry): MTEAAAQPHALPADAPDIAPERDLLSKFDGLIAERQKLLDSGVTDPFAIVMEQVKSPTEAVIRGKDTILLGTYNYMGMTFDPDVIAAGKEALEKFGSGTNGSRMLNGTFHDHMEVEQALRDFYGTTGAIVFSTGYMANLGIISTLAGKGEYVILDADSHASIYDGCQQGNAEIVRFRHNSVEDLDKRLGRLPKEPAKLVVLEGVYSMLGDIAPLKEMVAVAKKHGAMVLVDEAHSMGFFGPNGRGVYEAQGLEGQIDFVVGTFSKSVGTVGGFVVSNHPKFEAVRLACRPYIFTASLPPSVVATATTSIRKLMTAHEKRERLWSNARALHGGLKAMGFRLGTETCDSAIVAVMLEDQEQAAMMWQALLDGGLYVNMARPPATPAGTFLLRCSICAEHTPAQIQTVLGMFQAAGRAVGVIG

| SMILES | HPLC-HRMS of 3-ketodihydrosphingosine; coupled PPi assay (with palmitoyl-CoA regenerated by FadD, serine concentration varied) | HPLC-HRMS of 3-ketodihydrosphingosine; coupled PPi assay (5 mM serine, palmitoyl-CoA regenerated by FadD) |
| --- | --- | --- |
| N[C@@H](CO)C(=O)O [serine] | we verified the production of 3-ketodihydrosphingosine by our SPT reaction | – |
| CCCCCCCCCCCCCCCC(=O)SCCNC(=O)CCNC(=O)[C@H](O)C(C)(C)COP(=O)(O)OP(=O)(O)OC[C@H]1O[C@@H](n2cnc3c(N)ncnc32)[C@H](O)[C@@H]1OP(=O)(O)O [palmitoyl-CoA] | – | we verified the production of 3-ketodihydrosphingosine by our SPT reaction |
